# Laboratory results: patent publication US20130203718A1 (priority 2010, published 2013)
# Where two headings read alike, the source gives them in different places.
# Molecular target: T1, hGR (Homo sapiens, UniProt P04150)
# T1 construct: expressed in transfected cells; host or cells: HEK 293T
# T1 sequence (P04150 1-777): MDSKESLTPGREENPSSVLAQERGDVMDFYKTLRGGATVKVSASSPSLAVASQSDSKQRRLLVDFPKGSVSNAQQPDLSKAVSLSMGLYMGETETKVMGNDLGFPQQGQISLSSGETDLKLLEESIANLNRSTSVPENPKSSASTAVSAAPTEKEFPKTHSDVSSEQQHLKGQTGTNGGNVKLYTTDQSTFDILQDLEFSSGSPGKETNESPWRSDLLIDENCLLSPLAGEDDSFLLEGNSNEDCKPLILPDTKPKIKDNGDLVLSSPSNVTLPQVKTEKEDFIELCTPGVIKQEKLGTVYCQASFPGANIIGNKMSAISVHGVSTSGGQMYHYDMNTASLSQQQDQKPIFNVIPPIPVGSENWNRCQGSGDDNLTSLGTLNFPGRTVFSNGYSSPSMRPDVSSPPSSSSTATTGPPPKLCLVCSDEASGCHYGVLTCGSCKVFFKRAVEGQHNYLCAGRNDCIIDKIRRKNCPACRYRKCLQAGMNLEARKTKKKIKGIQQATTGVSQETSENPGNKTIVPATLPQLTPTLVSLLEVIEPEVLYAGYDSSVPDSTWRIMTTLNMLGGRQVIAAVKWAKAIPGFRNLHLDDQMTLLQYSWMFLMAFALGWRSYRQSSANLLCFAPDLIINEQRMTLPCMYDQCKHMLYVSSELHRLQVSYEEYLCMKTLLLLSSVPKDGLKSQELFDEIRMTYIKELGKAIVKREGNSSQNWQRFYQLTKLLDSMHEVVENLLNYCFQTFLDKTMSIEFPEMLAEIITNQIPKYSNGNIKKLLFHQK
# Assay: APRn selectivity: transactivation in HEK293T cells transiently expressing hGR
# Type: cell-based
# Conditions: for GR Antagonist efficacy (%): dexamethasone 10^−9 M; for Emax: HEK-293T, read-out: GR Agonist efficacy (%)
# Procedure: Measurement of the APRn Selectivity in HEK 293T.
# The HEK-293T cells were cultured and transfected according to the method described above for the PR transactivation assays. The expression vectors pcDNA-hAR, kindly provided by G. A. Coetzee, pchGR (Hellal-Levy, C et al. FEBS Lett 1999, 464, 9), and pchMR (Fagart, J. et al. EMBO J. 1998, 17, 3317) were used for studying the ability of APRn to activate or inactivate the AR, GR and MR, respectively. For each transfection assays, 2 μg of the expression vector was used together with 7 μg of the GRE2-Luc reporter vector. Dihydrotestosterone (DHT), dexamethasone (Dex) and Aldosterone (Aldo) were selected as AR, GR and MR ligands, respectively. They were used at the concentration of 10^−9 M. The APRn agonist and antagonist efficacy for AR, GR and MR were measured as described above for PR. The results are the mean±SEM of three independent experiments.
# Transfection assays were performed in HEK 293T cells by using expression vectors for the hAR, hGR and hMR and the GRE2-Luc reporter used for the PR transactivation assays.
# [1] = HEK293T transiently expressing hGR, mean±SEM
SMILES,GR Antagonist efficacy (%) [1],Emax [1],Emax
"CC(=O)[C@H]1CC[C@H]2[C@@H]3CC=C4C[C@@H](F)CC[C@]4(C)[C@H]3CC[C@]12C [APR-16, 3β-Fluoropregn-5-en-20-one]",0.1 ± 2.2%,0.25 ± 0.02%,
"C[C@@H]1CCC2C3CC=C4C[C@@H](F)CC[C@]4(C)C3CC[C@]2(C)[C@H]1F (stereo partly drawn) [APR-19, 3β,17α-Difluoro-17α-methyl-D-Homo-pregn-5-ene]",−3.5 ± 1.4%,,0.26 ± 0.05%
"CC#C[C@]1(O)CCC2C3CC[C@H]4CCCC[C@]4(C)C3CC[C@@]21C (stereo partly drawn) [APR-42, 17α-(1-Propynyl)-5α-androstan-17β-ol]",4.4 ± 3.3%,0.22 ± 0.07%,
"CC#C[C@]1(O)CCC2C3CC[C@H]4C[C@@H](F)CC[C@]4(C)C3CC[C@@]21C (stereo partly drawn) [APR-43, 3β-Fluoro-17α-(1-propynyl)-5α-androstan-17β-ol]",−9.0 ± 1.7%,,0.17 ± 0.05%
"C[C@]12CCC3C(CC=C4C[C@@H](F)CC[C@@H]43)C1CCC2=O (stereo partly drawn) [APR-47, 3β-Fluoro-19-nor-androst-5-en-17-one]",1.5 ± 4.3%,,0.16 ± 0.02%
"CC#C[C@]1(O)CCC2C3CC=C4C[C@@H](F)CC[C@@H]4C3CC[C@@]21C (stereo partly drawn) [APR-51, 3β-Fluoro-17α-(1-propynyl)-19-nor-androst-5-en-17β-ol]",19.3 ± 7.3%,,0.29 ± 0.08%
"CC#C[C@]1(O)CCC2C3CC[C@H]4CCCC[C@@H]4C3CC[C@@]21C (stereo partly drawn) [APR-54, 17α-(1-Propynyl)-19-nor-5-androstan-17β-ol]",−0.1 ± 3.3%,0.15 ± 0.02%,
